Results reported in patent US20230085307A1, “PYRIDAZINONE COMPOUND AND HERBICIDE” (NISSAN CHEMICAL CORPORATION, priority 2019, published 2023).

Experiments:
[1] = tested on: lambsquarters; experiment: Test Example 4: herbicidal effect by soil treatment (Table 19, symbol O); assay type: in vivo, lambsquarters (Chenopodium album); conditions: amount of applied herbicide 320 g/ha
Outline: (§1)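 Applied as a water-diluted emulsion, the compound was sprayed onto soil covering newly sown seeds. Evaluation came three weeks after application, in a greenhouse held at 25° C. to 30° C.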

[2] = tested on: barnyard grass; experiment: Test Example 5: herbicidal effect by foliage application, plastic box (Table 20, symbol H); assay type: in vivo, barnyard grass (Echinochloa crus-galli); conditions: foliage application, 320 g/ha, three weeks after application
Outline: (§2)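 Sow seeds spot-wise in sterilized diluvial soil; cover with ~1.5 cm soil. Grow 14 days in greenhouse, 25° C. to 30° C. Spray foliage with emulsion diluted to predetermined amount. Rate effect after 3 weeks.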

[3] = tested on: persian speedwell; experiment: Test Example 5: herbicidal effect by foliage application, plastic box (Table 20, symbol R); assay type: in vivo, Persian speedwell (Veronica persica); conditions: foliage application, 320 g/ha, three weeks after application
Outline: as §2

[4] = tested on: redroot pigweed; experiment: Test Example 4: herbicidal effect by soil treatment (Table 19, symbol N); assay type: in vivo, redroot pigweed (Amaranthus retroflexus); conditions: amount of applied herbicide 320 g/ha
Outline: as §1

[5] = tested on: velvetleaf; experiment: Test Example 5: herbicidal effect by foliage application, plastic box (Table 20, symbol M); assay type: in vivo, velvetleaf (Abutilon theophrasti); conditions: foliage application, 320 g/ha, three weeks after application
Outline: as §2

[6] = tested on: Italian ryegrass; experiment: Test Example 4: herbicidal effect by soil treatment (Table 19, symbol K); assay type: in vivo, Italian ryegrass (Lolium multiflorum); conditions: amount of applied herbicide 320 g/ha
Outline: as §1

[7] = tested on: blackgrass; experiment: Test Example 5: herbicidal effect by foliage application, plastic box (Table 20, symbol J); assay type: in vivo, blackgrass (Alopecurus myosuroides); conditions: foliage application, 320 g/ha, three weeks after application
Outline: as §2

[8] = tested on: false cleavers; experiment: Test Example 5: herbicidal effect by foliage application, plastic box (Table 20, symbol Q); assay type: in vivo, false cleavers (Galium spurium); conditions: foliage application, 320 g/ha, three weeks after application
Outline: as §2

[9] = tested on: persian speedwell; experiment: Test Example 4: herbicidal effect by soil treatment (Table 19, symbol R); assay type: in vivo, Persian speedwell (Veronica persica); conditions: amount of applied herbicide 320 g/ha
Outline: as §1

[10] = tested on: velvetleaf; experiment: Test Example 4: herbicidal effect by soil treatment (Table 19, symbol M); assay type: in vivo, velvetleaf (Abutilon theophrasti); conditions: amount of applied herbicide 320 g/ha
Outline: as §1

[11] = tested on: rice flat sedge; experiment: Test Example 3: herbicidal effect by foliage application, Wagner pot (Table 18, symbol E); assay type: in vivo, rice flat sedge (Cyperus iria); conditions: 320 g/ha
Outline: (§3)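 Plants were sown in alluvial soil held under 0.1–0.5 cm standing water and grown 14 days in a greenhouse at 25–30 °C. An emulsifiable formulation, water-diluted to the set dose, was then sprayed onto the foliage, and effects were scored three weeks later using previously defined criteria.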

[12] = tested on: oval-leafed pondweed; experiment: Test Example 1: herbicidal activity, application before weed generation under submerged conditions (Table 16, symbol C); assay type: in vivo, oval-leafed pondweed (Monochoria vaginalis); conditions: amount of applied herbicide 320 g/ha
Outline: (§4)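 Submerged Wagner pots (alluvial soil, 4 cm water) sown with weed seeds and planted with 2.5-leaf rice seedlings; emulsifiable concentrate diluted in water applied to water surface on sowing day. Held in greenhouse at 25-30 °C; injury scored 0-5 by herbicidal rate after three weeks.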

[13] = tested on: chickweed; experiment: Test Example 5: herbicidal effect by foliage application, plastic box (Table 20, symbol P); assay type: in vivo, common chickweed (Stellaria media); conditions: foliage application, 320 g/ha, three weeks after application
Outline: as §2

[14] = tested on: southern crabgrass; experiment: Test Example 5: herbicidal effect by foliage application, plastic box (Table 20, symbol F); assay type: in vivo, southern crabgrass (Digitaria ciliaris); conditions: foliage application, 320 g/ha, three weeks after application
Outline: as §2

[15] = tested on: southern crabgrass; experiment: Test Example 4: herbicidal effect by soil treatment (Table 19, symbol F); assay type: in vivo, southern crabgrass (Digitaria ciliaris); conditions: amount of applied herbicide 320 g/ha
Outline: as §1

[16] = tested on: chickweed; experiment: Test Example 4: herbicidal effect by soil treatment (Table 19, symbol P); assay type: in vivo, common chickweed (Stellaria media); conditions: amount of applied herbicide 320 g/ha
Outline: as §1

[17] = tested on: blackgrass; experiment: Test Example 4: herbicidal effect by soil treatment (Table 19, symbol J); assay type: in vivo, blackgrass (Alopecurus myosuroides); conditions: amount of applied herbicide 320 g/ha
Outline: as §1

[18] = tested on: lambsquarters; experiment: Test Example 5: herbicidal effect by foliage application, plastic box (Table 20, symbol O); assay type: in vivo, lambsquarters (Chenopodium album); conditions: foliage application, 320 g/ha, three weeks after application
Outline: as §2

[19] = tested on: barnyard grass; experiment: Test Example 4: herbicidal effect by soil treatment (Table 19, symbol H); assay type: in vivo, barnyard grass (Echinochloa crus-galli); conditions: amount of applied herbicide 320 g/ha
Outline: as §1

[20] = tested on: Japanese bulrush; experiment: Test Example 1: herbicidal activity, application before weed generation under submerged conditions (Table 16, symbol B); assay type: in vivo, Japanese bulrush (Schoenoplectus juncoides); conditions: amount of applied herbicide 320 g/ha
Outline: as §4

[21] = tested on: green foxtail; experiment: Test Example 5: herbicidal effect by foliage application, plastic box (Table 20, symbol G); assay type: in vivo, green foxtail (Setaria viridis); conditions: foliage application, 320 g/ha, three weeks after application
Outline: as §2

[22] = tested on: redroot pigweed; experiment: Test Example 5: herbicidal effect by foliage application, plastic box (Table 20, symbol N); assay type: in vivo, redroot pigweed (Amaranthus retroflexus); conditions: foliage application, 320 g/ha, three weeks after application
Outline: as §2

[23] = tested on: Chinese sprangletop; experiment: Test Example 3: herbicidal effect by foliage application, Wagner pot (Table 18, symbol D); assay type: in vivo, chinese sprangletop (Leptochloa chinensis); conditions: 320 g/ha
Outline: as §3

[24] = tested on: Italian ryegrass; experiment: Test Example 5: herbicidal effect by foliage application, plastic box (Table 20, symbol K); assay type: in vivo, Italian ryegrass (Lolium multiflorum); conditions: foliage application, 320 g/ha, three weeks after application
Outline: as §2

[25] = tested on: wild oat; experiment: Test Example 4: herbicidal effect by soil treatment (Table 19, symbol I); assay type: in vivo, wild oat (Avena fatua); conditions: amount of applied herbicide 320 g/ha
Outline: as §1

[26] = tested on: barnyard grass; experiment: Test Example 3: herbicidal effect by foliage application, Wagner pot (Table 18, symbol H); assay type: in vivo, barnyard grass (Echinochloa crus-galli); conditions: 320 g/ha
Outline: as §3

[27] = tested on: windgrass; experiment: Test Example 5: herbicidal effect by foliage application, plastic box (Table 20, symbol L); assay type: in vivo, windgrass (Apera spica-venti); conditions: foliage application, 320 g/ha, three weeks after application
Outline: as §2

[28] = tested on: late watergrass; experiment: Test Example 1: herbicidal activity, application before weed generation under submerged conditions (Table 16, symbol A); assay type: in vivo, late watergrass (Echinochloa oryzicola); conditions: amount of applied herbicide 320 g/ha
Outline: as §4

[29] = tested on: wild oat; experiment: Test Example 5: herbicidal effect by foliage application, plastic box (Table 20, symbol I); assay type: in vivo, wild oat (Avena fatua); conditions: foliage application, 320 g/ha, three weeks after application
Outline: as §2

[30] = tested on: windgrass; experiment: Test Example 4: herbicidal effect by soil treatment (Table 19, symbol L); assay type: in vivo, windgrass (Apera spica-venti); conditions: amount of applied herbicide 320 g/ha
Outline: as §1

[31] = tested on: false cleavers; experiment: Test Example 4: herbicidal effect by soil treatment (Table 19, symbol Q); assay type: in vivo, false cleavers (Galium spurium); conditions: amount of applied herbicide 320 g/ha
Outline: as §1

[32] = tested on: green foxtail; experiment: Test Example 4: herbicidal effect by soil treatment (Table 19, symbol G); assay type: in vivo, green foxtail (Setaria viridis); conditions: amount of applied herbicide 320 g/ha
Outline: as §1

Row | Structure (SMILES) | O: lambsquarters, herbicidal effect grade [1] | H: barnyard grass, herbicidal effect grade [2] | R: persian speedwell, herbicidal effect grade [3] | N: redroot pigweed, herbicidal effect grade [4] | M: velvetleaf, herbicidal effect grade [5] | K: Italian ryegrass, herbicidal effect grade [6] | J: blackgrass, herbicidal effect grade [7] | Q: false cleavers, herbicidal effect grade [8] | R: persian speedwell, herbicidal effect grade [9] | M: velvetleaf, herbicidal effect grade [10] | herbicidal effect on rice flat sedge (E) [11] | Herbicidal effect, C: oval-leafed pondweed [12] | P: chickweed, herbicidal effect grade [13] | F: southern crabgrass, herbicidal effect grade [14] | F: southern crabgrass, herbicidal effect grade [15] | P: chickweed, herbicidal effect grade [16] | J: blackgrass, herbicidal effect grade [17] | O: lambsquarters, herbicidal effect grade [18] | H: barnyard grass, herbicidal effect grade [19] | Herbicidal effect, B: Japanese bulrush [20] | other results
1 | COc1ccc2c(-c3c(O)c(C)nn(C)c3=O)c(-c3ccc(SC)cc3)sc2c1 [3-074] | 5 (Herbicidal rate of 90% or more (almost completely withered)) | 0 (Herbicidal rate of 5% or less (almost no effect)) | 5 (Herbicidal rate of 90% or more (almost completely withered)) | 5 (Herbicidal rate of 90% or more (almost completely withered)) | 4 (Herbicidal rate of 70% or more and less than 90%) | 0 (Herbicidal rate of 5% or less (almost no effect)) | 0 (Herbicidal rate of 5% or less (almost no effect)) | 5 (Herbicidal rate of 90% or more (almost completely withered)) | 5 (Herbicidal rate of 90% or more (almost completely withered)) | 0 (Herbicidal rate of 5% or less (almost no effect)) | 5 (Herbicidal rate of 90% or more (almost completely withered)) | 0 (Herbicidal rate of 5% or less (almost no effect)) | 5 (Herbicidal rate of 90% or more (almost completely withered)) | 2 (Herbicidal rate of 20% or more and less than 40%) | 0 (Herbicidal rate of 5% or less (almost no effect)) | 3 (Herbicidal rate of 40% or more and less than 70%) | 0 (Herbicidal rate of 5% or less (almost no effect)) | 5 (Herbicidal rate of 90% or more (almost completely withered)) | 0 (Herbicidal rate of 5% or less (almost no effect)) | 2 (Herbicidal rate of 20% or more and less than 40%) | G: green foxtail, herbicidal effect grade [21]: 3 (Herbicidal rate of 40% or more and less than 70%); N: redroot pigweed, herbicidal effect grade [22]: 5 (Herbicidal rate of 90% or more (almost completely withered)); herbicidal effect on Chinese sprangletop (D) [23]: 3 (Herbicidal rate of 40% or more and less than 70%); K: Italian ryegrass, herbicidal effect grade [24]: 0 (Herbicidal rate of 5% or less (almost no effect)); I: wild oat, herbicidal effect grade [25]: 0 (Herbicidal rate of 5% or less (almost no effect)); herbicidal effect on barnyard grass (H) [26]: 4 (Herbicidal rate of 70% or more and less than 90%); L: windgrass, herbicidal effect grade [27]: 3 (Herbicidal rate of 40% or more and less than 70%); Herbicidal effect, A: late watergrass [28]: 0 (Herbicidal rate of 5% or less (almost no effect)); I: wild oat, herbicidal effect grade [29]: 0 (Herbicidal rate of 5% or less (almost no effect)); L: windgrass, herbicidal effect grade [30]: 0 (Herbicidal rate of 5% or less (almost no effect)); Q: false cleavers, herbicidal effect grade [31]: 0 (Herbicidal rate of 5% or less (almost no effect)); G: green foxtail, herbicidal effect grade [32]: 0 (Herbicidal rate of 5% or less (almost no effect))
2 | CCn1nc(C)c(O)c(-c2c(-c3ccccc3OC)sc3cc(OC)ccc23)c1=O [3-084] | 2 (Herbicidal rate of 20% or more and less than 40%) | 3 (Herbicidal rate of 40% or more and less than 70%) | 5 (Herbicidal rate of 90% or more (almost completely withered)) | 4 (Herbicidal rate of 70% or more and less than 90%) | 4 (Herbicidal rate of 70% or more and less than 90%) | 1 (Herbicidal rate of 5% or more and less than 20%) | 4 (Herbicidal rate of 70% or more and less than 90%) | 5 (Herbicidal rate of 90% or more (almost completely withered)) | 4 (Herbicidal rate of 70% or more and less than 90%) | 0 (Herbicidal rate of 5% or less (almost no effect)) | 3 (Herbicidal rate of 40% or more and less than 70%) | 1 (Herbicidal rate of 5% or more and less than 20%) | 5 (Herbicidal rate of 90% or more (almost completely withered)) | 3 (Herbicidal rate of 40% or more and less than 70%) | 0 (Herbicidal rate of 5% or less (almost no effect)) | 4 (Herbicidal rate of 70% or more and less than 90%) | 0 (Herbicidal rate of 5% or less (almost no effect)) | 3 (Herbicidal rate of 40% or more and less than 70%) | 0 (Herbicidal rate of 5% or less (almost no effect)) | 3 (Herbicidal rate of 40% or more and less than 70%) | G: green foxtail, herbicidal effect grade [21]: 3 (Herbicidal rate of 40% or more and less than 70%); N: redroot pigweed, herbicidal effect grade [22]: 5 (Herbicidal rate of 90% or more (almost completely withered)); herbicidal effect on Chinese sprangletop (D) [23]: 0 (Herbicidal rate of 5% or less (almost no effect)); K: Italian ryegrass, herbicidal effect grade [24]: 1 (Herbicidal rate of 5% or more and less than 20%); I: wild oat, herbicidal effect grade [25]: 2 (Herbicidal rate of 20% or more and less than 40%); herbicidal effect on barnyard grass (H) [26]: 5 (Herbicidal rate of 90% or more (almost completely withered)); L: windgrass, herbicidal effect grade [27]: 3 (Herbicidal rate of 40% or more and less than 70%); Herbicidal effect, A: late watergrass [28]: 0 (Herbicidal rate of 5% or less (almost no effect)); I: wild oat, herbicidal effect grade [29]: 3 (Herbicidal rate of 40% or more and less than 70%); L: windgrass, herbicidal effect grade [30]: 0 (Herbicidal rate of 5% or less (almost no effect)); Q: false cleavers, herbicidal effect grade [31]: 3 (Herbicidal rate of 40% or more and less than 70%); G: green foxtail, herbicidal effect grade [32]: 0 (Herbicidal rate of 5% or less (almost no effect))
